Eleven compounds from ChEMBL document CHEMBL4689842, “EUbOPEN Chemogenomics Library wave 1” (2021) can be followed below.

Format in all cases: toxicity, cell-based
The test system of data set [1] is U2OS. As to the kind of experiment: Incucyte cell viability with U2OS. Particulars: human, 10 µM, compound concentration 10 uM.
The test system of data set [2] is HEK-293T. Put plainly: Incucyte cell viability with HEK293T. As to conditions: human, 10 µM, compound concentration 10 uM.
Data set [3] concerns Fibroblast. As to the kind of experiment: Incucyte cell viability with human fibroblast. As to conditions: 10 µM, compound concentration 10 uM.
[4] abbreviates: 0 h, replicate number 1, timepoint 0 hours.
[5] abbreviates: 6 h, replicate number 2, timepoint 6 hours.
[6] abbreviates: 12 h, replicate number 1, timepoint 12 hours.
Where [7] appears, read: 18 h, replicate number 1, timepoint 18 hours.
[8] abbreviates: 24 h, replicate number 1, timepoint 24 hours.
Where [9] appears, read: 0 h, replicate number 2, timepoint 0 hours.
The mark [10] stands for this setting: 6 h, replicate number 1, timepoint 6 hours.
[11] abbreviates: 24 h, replicate number 2, timepoint 24 hours.
Setting [12] is: 18 h, replicate number 2, timepoint 18 hours.
[13] abbreviates: 12 h, replicate number 2, timepoint 12 hours.
Further: filed as whole numbers so only -1 and 0 and 1 occur.

`Cc1cn2cc(CC(=O)N3CCC4(CC3)CN(Cc3ccc(-n5nccn5)cc3Cl)C4)nc2s1`: the “Growth Rate” value in data set [1] (setting [4]) was determined as 0; in data set [1] (setting [5]), 0; in data set [1] (setting [6]), 1; in data set [1] (setting [7]), 1; in data set [1] (setting [8]), 1; in data set [2] (setting [4]), 1. Also, the “Growth Rate” value came to 0 in data set [2] (setting [9]); 0 in data set [2] (setting [10]); 0 in data set [2] (setting [6]); 0 in data set [2] (setting [7]); 0 in data set [2] (setting [8]); 1 in data set [3] (setting [4]). For the same compound, the “Growth Rate” value in data set [3] (setting [10]) stood at 0; in data set [3] (setting [6]), 0; in data set [3] (setting [7]), 0; in data set [3] (setting [8]), 1; in data set [3] (setting [11]) it was 0.

As for `OCCn1cc(-c2ccc3c(c2)CCC3=NO)c(-c2ccncc2)n1`, the “Growth Rate” value in data set [1] (setting [4]) was determined as 1; in data set [1] (setting [10]), 1; in data set [1] (setting [6]), 1; in data set [1] (setting [7]), 1; in data set [1] (setting [12]), 0; in data set [1] (setting [8]), 1. For the same compound, the “Growth Rate” value in data set [2] (setting [4]) is given as 0; in data set [2] (setting [6]), 1; in data set [2] (setting [7]), 0; in data set [2] (setting [12]), 1; in data set [2] (setting [8]) it was 0; in data set [2] (setting [11]) it was 1. The “Growth Rate” value came to 0 in data set [3] (setting [4]); 1 in data set [3] (setting [5]); 1 in data set [3] (setting [6]); 0 in data set [3] (setting [13]); 1 in data set [3] (setting [7]); 0 in data set [3] (setting [12]). In addition, the “Growth Rate” value in data set [3] (setting [8]) turned out to be 1.

On to `COc1ccc(Br)cc1S(=O)(=O)NC(=O)/C=C/c1ccccc1Cc1ccc2ccccc2c1`, for which the “Growth Rate” value in data set [1] (setting [4]) amounted to 0; in data set [1] (setting [5]), 0; in data set [1] (setting [13]), 1; in data set [1] (setting [7]) it was 1; in data set [1] (setting [8]) it was 1; in data set [1] (setting [11]) it was 0. In addition, the “Growth Rate” value in data set [2] (setting [9]) came to 0; in data set [2] (setting [10]) it was 0; in data set [2] (setting [5]), 1; in data set [2] (setting [6]), 0; in data set [2] (setting [13]) it was 1; in data set [2] (setting [7]) it was 0. For the same compound, the “Growth Rate” value in data set [2] (setting [12]) was found to be 1; in data set [2] (setting [8]), 0; in data set [2] (setting [11]) it was 1; in data set [3] (setting [4]), 1; in data set [3] (setting [9]) it was 0; in data set [3] (setting [10]) it was 0. Besides, the “Growth Rate” value worked out at 1 in data set [3] (setting [5]); 1 in data set [3] (setting [6]); 0 in data set [3] (setting [7]); 1 in data set [3] (setting [12]); 0 in data set [3] (setting [8]); 1 in data set [3] (setting [11]).

In the case of `COc1cc(C#N)ccc1S(=O)(=O)Nc1ccc2c(c1)cc(C)c(=O)n2C`, the “Growth Rate” value in data set [1] (setting [4]) was 0; in data set [1] (setting [10]), 0; in data set [1] (setting [5]) it was 1; in data set [1] (setting [6]), 0; in data set [1] (setting [13]) it was 1; in data set [1] (setting [7]), 0. Further, the “Growth Rate” value in data set [1] (setting [12]) was determined as 1; in data set [1] (setting [8]), 0; in data set [1] (setting [11]) it was 1; in data set [2] (setting [4]), 1; in data set [2] (setting [10]), 0; in data set [2] (setting [6]) it was 0. Besides, the “Growth Rate” value in data set [2] (setting [7]) was 0; in data set [2] (setting [12]) it was 1; in data set [2] (setting [8]) it was 0; in data set [3] (setting [9]), 0; in data set [3] (setting [10]), 1; in data set [3] (setting [5]), 0. The “Growth Rate” value was 0 in data set [3] (setting [6]), 0 in data set [3] (setting [7]), 1 in data set [3] (setting [8]) and 0 in data set [3] (setting [11]).

For the compound `CCCOc1ccn2c(C(C)=O)cc(-c3cccc(OC)c3)c2c1`, the “Growth Rate” value in data set [1] (setting [4]) was determined as 0; in data set [1] (setting [10]), 0; in data set [1] (setting [6]) it was 1; in data set [1] (setting [7]), 1; in data set [1] (setting [8]), 1; in data set [2] (setting [4]), 0. Also, the “Growth Rate” value in data set [2] (setting [11]) is recorded as 1; in data set [3] (setting [4]) it was 0; in data set [3] (setting [5]) it was 0; in data set [3] (setting [13]), 1; in data set [3] (setting [12]), 0; in data set [3] (setting [8]), 1.

With `C/C(=C/C=C/C(C)=C/C(=O)O)c1cc(C(C)(C)C)cc(C(C)(C)C)c1OCC(F)F`, the “Growth Rate” value in data set [1] (setting [4]) turned out to be 0; in data set [1] (setting [6]), 1; in data set [1] (setting [7]) it was 1; in data set [1] (setting [8]), 1; in data set [2] (setting [4]), 0; in data set [2] (setting [10]) it was 0. Also, the “Growth Rate” value in data set [2] (setting [6]), in data set [2] (setting [7]), in data set [2] (setting [8]), in data set [3] (setting [4]), in data set [3] (setting [10]) and in data set [3] (setting [6]) was 0 each time. Further, the “Growth Rate” value in data set [3] (setting [7]) stood at 0; in data set [3] (setting [12]) it was 1; in data set [3] (setting [8]), 0.

Regarding `CCOP(=O)(OCC)C(=Cc1cc(C(C)(C)C)c(O)c(C(C)(C)C)c1)P(=O)(OCC)OCC`, the “Growth Rate” value was found to be 1 in data set [1] (setting [4]); 0 in data set [1] (setting [9]); 0 in data set [1] (setting [5]); 0 in data set [1] (setting [6]); 0 in data set [1] (setting [7]); 0 in data set [1] (setting [8]). Further, the “Growth Rate” value in data set [2] (setting [4]), in data set [2] (setting [5]), in data set [2] (setting [6]), in data set [2] (setting [7]), in data set [2] (setting [8]) and in data set [3] (setting [10]) was 0 each time. Also, the “Growth Rate” value in data set [3] (setting [6]) is reported as 0; in data set [3] (setting [7]) it was 0; in data set [3] (setting [12]), 1; in data set [3] (setting [8]), 0.

Turning to `CCc1cc(Nc2nccc(-c3c(-c4ccc(OC)c(C(=O)Nc5c(F)cccc5F)c4)nc4ccccn34)n2)c(OC)cc1N1CCC(N2CCN(S(C)(=O)=O)CC2)CC1`, the “Growth Rate” value stood at 1 in data set [1] (setting [10]); 1 in data set [1] (setting [6]); 1 in data set [1] (setting [7]); 0 in data set [1] (setting [12]); 1 in data set [1] (setting [8]); 1 in data set [2] (setting [4]). For the same compound, the “Growth Rate” value worked out at 0 in data set [2] (setting [9]); 0 in data set [2] (setting [10]); 0 in data set [2] (setting [6]); 1 in data set [2] (setting [13]); 0 in data set [2] (setting [7]); 0 in data set [2] (setting [8]). Further, the “Growth Rate” value in data set [2] (setting [11]) came out at 1; in data set [3] (setting [4]), 1; in data set [3] (setting [10]) it was 1; in data set [3] (setting [5]), 0; in data set [3] (setting [6]), 1; in data set [3] (setting [13]) it was 0. Besides, the “Growth Rate” value worked out at 1 in data set [3] (setting [7]), 0 in data set [3] (setting [12]), 1 in data set [3] (setting [8]) and 0 in data set [3] (setting [11]).

For the compound `Cl.O=C(Cc1ccc(Cl)c(Cl)c1)N1CCCC[C@H]1CN1CCCC1`, the “Growth Rate” value in data set [1] (setting [4]) is reported as 0; in data set [1] (setting [5]) it was 1; in data set [1] (setting [6]) it was 1; in data set [1] (setting [7]), 1; in data set [1] (setting [8]) it was 1; in data set [2] (setting [9]) it was 0. Moreover, the “Growth Rate” value in data set [2] (setting [10]) worked out at 0; in data set [2] (setting [6]), 0; in data set [2] (setting [7]) it was 0; in data set [2] (setting [12]) it was 1; in data set [2] (setting [8]), 0; in data set [3] (setting [4]), 0. Further, the “Growth Rate” value in data set [3] (setting [9]) stood at 1.

Turning to `CCN(Cc1ccc(Cl)cc1)c1ncc(C(=O)NCCCN2CCCC2=O)c(NC2CCCC2)n1`, the “Growth Rate” value in data set [1] (setting [9]) is reported as 0; in data set [1] (setting [10]), 1; in data set [1] (setting [6]) it was 1; in data set [1] (setting [7]), 1; in data set [1] (setting [8]) it was 1; in data set [2] (setting [4]) it was 0. The “Growth Rate” value in data set [3] (setting [9]) turned out to be 0; in data set [3] (setting [10]), 1; in data set [3] (setting [5]), 0; in data set [3] (setting [6]), 1; in data set [3] (setting [13]) it was 0; in data set [3] (setting [7]), 1. Besides, the “Growth Rate” value in data set [3] (setting [8]) is 1.

With `CCCCN(Cc1ccccc1)C(=O)c1ccc(S(=O)(=O)Nc2ccccc2)cc1`, the “Growth Rate” value in data set [1] (setting [10]) stood at 1; in data set [1] (setting [6]) it was 1; in data set [1] (setting [7]), 1; in data set [1] (setting [12]), 0; in data set [1] (setting [8]), 1; in data set [1] (setting [11]), 0. Further, the “Growth Rate” value stood at 0 in data set [2] (setting [4]); 1 in data set [2] (setting [10]); 0 in data set [2] (setting [5]); 1 in data set [2] (setting [13]); 1 in data set [2] (setting [11]); 0 in data set [3] (setting [4]). Further, the “Growth Rate” value in data set [3] (setting [9]) came to 1; in data set [3] (setting [5]), 0; in data set [3] (setting [6]) it was 1; in data set [3] (setting [13]) it was 0; in data set [3] (setting [7]) it was 1; in data set [3] (setting [12]) it was 0. In addition, the entries for the “Growth Rate” value in data set [3] (setting [8]) and in data set [3] (setting [11]) were 0 and 1, respectively.
